Several values for one entry are separate records, joined by “and”; a condition that tells them apart may be missing. Identical values can stand only once. Toxic doses and inconclusive results are not listed.

The test system of the test is CD2F1 mice, L1210 leukemia ip, survival T/C. In words: NCI In Vivo Anticancer Drug Screen. Data for tumor model L1210 Leukemia (intraperitoneal) in CD2F1 (CDF1) mice. The following applies: higher = longer survival. In short, it runs like this:
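Ratio T/C, where T is the treated-group value and C the vehicle-dosed control value, from mice implanted with a transplantable tumor.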

Setting [1] is: endpoint: mean survival time, dose: 100.0 mg/kg/injection, schedule: Q04DX003 (ip), vehicle: saline with Tween-80.
Where [2] appears, read: endpoint: mean survival time, dose: 200.0 mg/kg/injection, schedule: Q04DX003 (ip), vehicle: saline with Tween-80.
[3] abbreviates: endpoint: mean survival time, dose: 400.0 mg/kg/injection, schedule: Q04DX003 (ip), vehicle: saline with Tween-80.
Where [4] appears, read: endpoint: mean survival time, dose: 100.0 mg/kg/injection, schedule: Q01DX001 (ip), vehicle: saline with Tween-80.
[5] abbreviates: endpoint: mean survival time, dose: 200.0 mg/kg/injection, schedule: Q01DX001 (ip), vehicle: saline with Tween-80.
Where [6] appears, read: endpoint: mean survival time, dose: 400.0 mg/kg/injection, schedule: Q01DX001 (ip), vehicle: saline with Tween-80.
Setting [7] is: endpoint: mean survival time, dose: 100.0 mg/kg/injection, schedule: Q01DX009 (ip), vehicle: saline with Tween-80.
[8] abbreviates: endpoint: mean survival time, dose: 200.0 mg/kg/injection, schedule: Q01DX009 (ip), vehicle: saline with Tween-80.
[9] abbreviates: endpoint: mean survival time, dose: 400.0 mg/kg/injection, schedule: Q01DX009 (ip), vehicle: saline with Tween-80.

Consider `CO[C@@]12[C@@H]3N[C@@H]3CN1c1c(O)c(C)c(N=C3N=NC(=S)S3)c(O)c1[C@@H]2COC(N)=O`, for which the T/C (endpoint: mean survival time, dose: 1.5 mg/kg/injection, schedule: Q01DX001 (ip), vehicle: distilled water + Tween-80) was 98 % of control; the T/C (endpoint: mean survival time, dose: 3.0 mg/kg/injection, schedule: Q01DX001 (ip), vehicle: distilled water + Tween-80) was 98 % of control; the T/C (endpoint: mean survival time, dose: 6.0 mg/kg/injection, schedule: Q01DX001 (ip), vehicle: distilled water + Tween-80) was 98 % of control; the T/C (endpoint: mean survival time, dose: 12.0 mg/kg/injection, schedule: Q01DX001 (ip), vehicle: distilled water + Tween-80) was 102 % of control; the T/C (endpoint: mean survival time, dose: 24.0 mg/kg/injection, schedule: Q01DX001 (ip), vehicle: distilled water + Tween-80) was 110 % of control; the T/C (endpoint: mean survival time, dose: 48.0 mg/kg/injection, schedule: Q01DX001 (ip), vehicle: saline with Tween-80) was 100 % of control. Besides, the T/C (endpoint: mean survival time, dose: 96.0 mg/kg/injection, schedule: Q01DX001 (ip), vehicle: saline with Tween-80) is 110 % of control.
Regarding `CC(=O)CC(=O)c1ccc(C(=O)CC(C)=O)cc1.[Fe]`, the T/C is, setting by setting: under setting [1], 96 % of control; under setting [2], 89 % of control; under setting [3], 104 % of control.
With `CSc1nc(NC2OC(CO)C(O)C(O)C2O)cc(=O)n1C` (stereo not drawn), the T/C is, setting by setting: (endpoint: median survival time, dose: 12.5 mg/kg/injection, schedule: Q01DX005 (ip), vehicle: saline) 102 % of control; (endpoint: median survival time, dose: 25.0 mg/kg/injection, schedule: Q01DX005 (ip), vehicle: saline) 100 % of control; (endpoint: median survival time, dose: 50.0 mg/kg/injection, schedule: Q01DX005 (ip), vehicle: saline) 102 % of control; (endpoint: median survival time, dose: 100.0 mg/kg/injection, schedule: Q01DX005 (ip), vehicle: saline) 102 % of control; (endpoint: median survival time, dose: 200.0 mg/kg/injection, schedule: Q01DX005 (ip), vehicle: saline) 100 % of control.
`Cc1c2ccncc2c(C)c2c1[nH]c1ccc(O)cc12`: the T/C was 116 % of control (endpoint: mean survival time, dose: 16.75 mg/kg/injection, schedule: Q04DX003 (ip), vehicle: water); 166 % of control (endpoint: mean survival time, dose: 50.0 mg/kg/injection, schedule: Q04DX003 (ip), vehicle: other); 111 % of control (endpoint: mean survival time, dose: 75.0 mg/kg/injection, schedule: Q04DX003 (ip), vehicle: water); 102 % of control (endpoint: mean survival time, dose: 100.0 mg/kg/injection, schedule: Q04DX003 (ip), vehicle: other); 94 % of control (endpoint: mean survival time, dose: 100.0 mg/kg/injection, schedule: Q04DX003 (ip), vehicle: water).
Take `CC(=O)C(CCCCCCCCCCC(C(C)=O)C(C)=O)C(C)=O`: the T/C is, setting by setting: under setting [4], 93 % of control; under setting [5], 101 % of control; under setting [6], 94 % of control.
Take `O=C(CO)c1ccccc1`: the T/C runs as follows: under setting [1], 97 % of control; under setting [2], 92 % of control; under setting [3], 92 % of control.
As to `CCOC(=O)CCCCCSc1nn(C2OC(COC(=O)c3ccccc3)C(OC(=O)c3ccccc3)C2OC(=O)c2ccccc2)c(=O)[nH]c1=O` (stereo not drawn), the T/C was 101 % of control (endpoint: mean survival time, dose: 12.5 mg/kg/injection, schedule: Q01DX005 (ip), vehicle: distilled water + Tween-80); 107 % of control (endpoint: mean survival time, dose: 25.0 mg/kg/injection, schedule: Q01DX005 (ip), vehicle: distilled water + Tween-80); 95 % of control (endpoint: mean survival time, dose: 50.0 mg/kg/injection, schedule: Q01DX005 (ip), vehicle: distilled water + Tween-80); 106 % of control (endpoint: mean survival time, dose: 100.0 mg/kg/injection, schedule: Q01DX005 (ip), vehicle: distilled water + Tween-80); 107 % of control (endpoint: mean survival time, dose: 200.0 mg/kg/injection, schedule: Q01DX005 (ip), vehicle: distilled water + Tween-80).
Take `CCCCCCCCCCCCCCOc1ccc(OCCCCCCCCC)cc1`: the T/C is 94 % of control under setting [4], 94 % of control under setting [5] and 95 % of control under setting [6].
Turning to `Cc1cc(=O)[nH][nH]c1=O`, the T/C is, setting by setting: under setting [7], 104 % of control; under setting [8], 97 % of control; under setting [9], 101 % of control.
In the case of `CCCCCCCCCCCCNC(=O)C[n+]1cccc(C(=O)NC)c1`, the T/C (endpoint: mean survival time, dose: 12.5 mg/kg/injection, schedule: Q01DX009 (ip), vehicle: saline) was 98 % of control; the T/C (endpoint: mean survival time, dose: 18.8 mg/kg/injection, schedule: Q04DX003 (ip), vehicle: saline) is 98 % of control; the T/C (endpoint: mean survival time, dose: 25.0 mg/kg/injection, schedule: Q01DX009 (ip), vehicle: saline) was 101 % of control; the T/C (endpoint: mean survival time, dose: 37.5 mg/kg/injection, schedule: Q04DX003 (ip), vehicle: saline) was 95 % of control; the T/C (endpoint: mean survival time, dose: 50.0 mg/kg/injection, schedule: Q01DX009 (ip), vehicle: saline) was 98 % of control; the T/C (endpoint: mean survival time, dose: 75.0 mg/kg/injection, schedule: Q04DX003 (ip), vehicle: saline) is 101 % of control.
Regarding `CC[n+]1c(-c2ccccc2)c2cc(N)ccc2c2ccc(N)cc21`, the T/C runs as follows: (endpoint: mean survival time, dose: 1.0 mg/kg/injection, schedule: Q01DX009 (ip), vehicle: water) 106 % of control; (endpoint: mean survival time, dose: 2.0 mg/kg/injection, schedule: Q01DX009 (ip), vehicle: water) 112 % of control; (endpoint: mean survival time, dose: 2.5 mg/kg/injection, schedule: Q01DX005 (ip), vehicle: water) 101 % of control; (endpoint: mean survival time, dose: 4.0 mg/kg/injection, schedule: Q01DX009 (ip), vehicle: water) 116 % of control; (endpoint: mean survival time, dose: 5.0 mg/kg/injection, schedule: Q01DX005 (ip), vehicle: water) 105 % of control; (endpoint: mean survival time, dose: 8.0 mg/kg/injection, schedule: Q01DX009 (ip), vehicle: water) 122 % of control. The T/C (endpoint: mean survival time, dose: 10.0 mg/kg/injection, schedule: Q01DX005 (ip), vehicle: water) was 114 % of control and the T/C (endpoint: mean survival time, dose: 16.0 mg/kg/injection, schedule: Q01DX009 (ip), vehicle: water) was 104 % of control.
As for `O=C(O)CC(c1ccccc1)C(CC(=O)O)c1ccccc1.[NH-]C1CCCCC1[NH-].[Pt+2]` (stereo not drawn), the T/C was 107 % of control (endpoint: median survival time, dose: 3.12 mg/kg/injection, schedule: Q04DX003 (ip), vehicle: saline with Tween-80); 105 % of control (endpoint: median survival time, dose: 3.12 mg/kg/injection, schedule: Q04DX003 (ip), vehicle: saline); 111 % of control (endpoint: median survival time, dose: 6.25 mg/kg/injection, schedule: Q04DX003 (ip), vehicle: saline with Tween-80); 102 % of control (endpoint: median survival time, dose: 6.25 mg/kg/injection, schedule: Q04DX003 (ip), vehicle: saline); 102 % of control (endpoint: median survival time, dose: 12.5 mg/kg/injection, schedule: Q04DX003 (ip), vehicle: saline with Tween-80); 103 % of control (endpoint: median survival time, dose: 12.5 mg/kg/injection, schedule: Q04DX003 (ip), vehicle: saline). Further, the T/C runs as follows: (endpoint: median survival time, dose: 25.0 mg/kg/injection, schedule: Q04DX003 (ip), vehicle: saline with Tween-80) 111 % of control; (endpoint: median survival time, dose: 25.0 mg/kg/injection, schedule: Q04DX003 (ip), vehicle: saline) 110 % of control; (endpoint: median survival time, dose: 50.0 mg/kg/injection, schedule: Q04DX003 (ip), vehicle: saline with Tween-80) 123 % of control; (endpoint: median survival time, dose: 50.0 mg/kg/injection, schedule: Q04DX003 (ip), vehicle: saline) 110 % of control; (endpoint: median survival time, dose: 100.0 mg/kg/injection, schedule: Q04DX003 (ip), vehicle: saline) 121 % of control.
On to `c1ccc2sc(SSN3CC4CCC(CC4)C3)nc2c1`, for which the T/C (endpoint: mean survival time, dose: 12.5 mg/kg/injection, schedule: Q01DX009 (ip), vehicle: saline with Tween-80) is 97 % of control and 108 % of control; the T/C (endpoint: mean survival time, dose: 25.0 mg/kg/injection, schedule: Q01DX009 (ip), vehicle: saline with Tween-80) was 93 % of control and 101 % of control; the T/C (endpoint: mean survival time, dose: 50.0 mg/kg/injection, schedule: Q01DX009 (ip), vehicle: saline with Tween-80) is 102 % of control and 103 % of control; the T/C under setting [7] was 101 % of control and 108 % of control; the T/C under setting [8] was 95 % of control and 108 % of control; the T/C under setting [9] is 103 % of control.

The record behind these values is PubChem BioAssay AID256 (DTP/NCI, 2004).
